Reference: patent US20220402948A1, “EGFR INHIBITOR, COMPOSITION AND PREPARATION METHOD THEREFOR” (BETTA PHARMACEUTICALS CO., LTD., priority 2019, published 2022)

How the values were obtained:
EGFRΔ19del/T790M/C797S = EGFRΔ19del/T790M/C797S (Homo sapiens, UniProt P00533, T790M/C797S, form not given); assay: EGFR Δ19del/T790M/C797S kinase test (mobility variation analysis, Caliper EZ Reader); format: biochemical; details: kinase enzymatic activity, Table 1
Summary of the method: (§1)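 Kinase pre-incubated with compound 10 minutes at room temperature, then ATP plus peptide substrate added; substrate conversion read by mobility shift after stop solution. Percent inhibition normalized to no-compound and no-enzyme controls; IC50 from variable-slope log(inhibitor) fit.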

EGFR WT = EGFR WT (Homo sapiens, UniProt P00533); assay: EGFR WT kinase test (mobility variation analysis, Caliper EZ Reader); format: biochemical; details: kinase enzymatic activity, Table 1
Summary of the method: as §1

IGF1R = IGF1R (Homo sapiens, UniProt P08069); assay: IGF1R kinase test (mobility variation analysis, Caliper EZ Reader); format: biochemical; details: kinase enzymatic activity, Table 1; read-out: EGFR IGF1R IC50
Summary of the method: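 Kinase preincubated 10 min at room temperature with compound (10-point 3-fold series, top 3000 nM), then ATP and substrate added and reacted at room temperature. Substrate conversion read by mobility-shift (Caliper EZ Reader); % inhibition vs no-enzyme and no-compound controls fitted to variable-slope curve for IC50.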

[1] = biological target: Ba/F3 cells with EGFR Δ19del/T790M/C797S mutation gene stably overexpressed (Homo sapiens, UniProt P00533, T790M/C797S, cells depend on it, form not given); assay: Ba/F3-Δ19del/T790M/C797S cell proliferation assay (CellTiter Glo, 72 hours); format: cell-based; details: Table 2, read-out: EGFR Δ19del/T790M/C797S IC50
Experimental: (§2) Cell line: Ba/F3 cells with EGFR Δ19del/T790M/C797S mutation gene stably overexpressed named Ba/F3-Δ119del/T90M/C797S, and A431 and Ba/F3-EGFR wild-type cell line.
(§3) a) Centrifuge the growth cells in logarithmic phase at 1000 rpm for 5 minutes, resuspend the cells in culture medium, and then count the cells;
(§4) b) Inoculate the cells into a 96-well cell culture plate with a density of 2000 cells/well;
(§5) b) Incubate cells in an incubator for another 72 hours.
(§6) a) Take out the 96-well cell culture plate and add 50 μl CTG reagent (CellTiter Glo kit, promega, Cat #G7573);
(§7) b) Shake the plate for 2 minutes and let cool at room temperature for 10 minutes;
(§8) c) Read luminous signal value with PerkinElmer reader,
(§9) Analysis of Experimental Data
(§10) The data were analyzed by GraphPad Prism 6.0 software to obtain the fitting curve of compound activity.
(§11) Y=Min+(Max−Min)/(1+10^((Log IC50−X)*slope));
(§12) X: Logarithm of compound concentration; Y: luminous signal.

A431 = A431 cell proliferation assay (CellTiter Glo, 72 hours); format: cell-based; details: Homo sapiens, A-431, 72 h, cell proliferation, A431, 72 hours, Table 2; read-out: A431 IC50
Experimental: as §2
RPMI 1640 and 10% FBS and 1% PS; DMEM and 10% FBS and 1% PS.
a) Dilute the test compound (20 mM stock solution) to 10 mM with 100% DMSO as the starting concentration, and then serially dilute 3 times with a “9+0” concentration in 96-well dilution plate (Cat #P-05525, Labcyte);
b) Dilute compound solution thereof to 1:100 (1:20 for comparative compound 1 and compounds 1-38) in medium to prepare 10-fold working solution;
as §3, §4
a) Compounds prepared at step 2 were added to cell plate with 15 μl per well, the final concentrations were 1000, 333, 111.1, 37, 12.3, 4.1, 1.4, 0.5, 0.2 and 0 nM, and the final concentration of DMSO was 0.1%. The blank control well was a culture medium (0.1% DMSO) (the blank control well of comparative compound 1 and compounds 1-38 was a culture medium (0.5% DMSO).
as §5, §6, §7, §8, §9, §10
Fitting compound IC50 from nonlinear regression equation:
as §11, §12

Chain of EGFR WT (P00533 25-1210): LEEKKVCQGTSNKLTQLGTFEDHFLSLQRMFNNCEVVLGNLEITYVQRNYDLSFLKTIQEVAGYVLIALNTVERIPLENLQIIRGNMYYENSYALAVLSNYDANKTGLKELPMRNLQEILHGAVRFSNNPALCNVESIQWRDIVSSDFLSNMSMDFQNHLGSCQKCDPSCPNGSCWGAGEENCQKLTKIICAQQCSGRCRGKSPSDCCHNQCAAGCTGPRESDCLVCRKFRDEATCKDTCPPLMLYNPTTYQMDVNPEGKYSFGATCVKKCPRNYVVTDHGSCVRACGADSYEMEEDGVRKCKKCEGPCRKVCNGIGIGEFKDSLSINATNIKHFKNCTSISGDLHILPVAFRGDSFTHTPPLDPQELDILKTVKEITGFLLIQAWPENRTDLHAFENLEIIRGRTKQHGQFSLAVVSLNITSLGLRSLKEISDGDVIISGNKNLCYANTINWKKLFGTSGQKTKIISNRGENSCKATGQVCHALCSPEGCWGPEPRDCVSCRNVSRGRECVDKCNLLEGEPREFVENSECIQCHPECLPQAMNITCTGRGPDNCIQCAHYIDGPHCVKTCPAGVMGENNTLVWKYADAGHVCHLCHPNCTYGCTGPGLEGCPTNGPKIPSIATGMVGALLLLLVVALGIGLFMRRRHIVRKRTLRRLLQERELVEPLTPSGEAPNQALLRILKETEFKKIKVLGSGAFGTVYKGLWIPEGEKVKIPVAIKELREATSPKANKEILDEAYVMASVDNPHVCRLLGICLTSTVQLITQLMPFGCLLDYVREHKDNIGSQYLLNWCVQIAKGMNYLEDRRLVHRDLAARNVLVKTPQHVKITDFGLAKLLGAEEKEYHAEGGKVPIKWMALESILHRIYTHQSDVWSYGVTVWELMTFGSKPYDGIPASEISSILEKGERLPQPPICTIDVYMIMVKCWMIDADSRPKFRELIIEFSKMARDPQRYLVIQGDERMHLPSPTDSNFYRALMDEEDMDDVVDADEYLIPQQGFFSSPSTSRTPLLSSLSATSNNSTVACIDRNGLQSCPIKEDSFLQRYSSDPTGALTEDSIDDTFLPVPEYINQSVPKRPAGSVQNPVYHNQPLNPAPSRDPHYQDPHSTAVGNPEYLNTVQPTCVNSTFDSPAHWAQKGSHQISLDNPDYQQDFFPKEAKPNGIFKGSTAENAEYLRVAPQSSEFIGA
Chain of IGF1R (P08069 31-1367, species assumed): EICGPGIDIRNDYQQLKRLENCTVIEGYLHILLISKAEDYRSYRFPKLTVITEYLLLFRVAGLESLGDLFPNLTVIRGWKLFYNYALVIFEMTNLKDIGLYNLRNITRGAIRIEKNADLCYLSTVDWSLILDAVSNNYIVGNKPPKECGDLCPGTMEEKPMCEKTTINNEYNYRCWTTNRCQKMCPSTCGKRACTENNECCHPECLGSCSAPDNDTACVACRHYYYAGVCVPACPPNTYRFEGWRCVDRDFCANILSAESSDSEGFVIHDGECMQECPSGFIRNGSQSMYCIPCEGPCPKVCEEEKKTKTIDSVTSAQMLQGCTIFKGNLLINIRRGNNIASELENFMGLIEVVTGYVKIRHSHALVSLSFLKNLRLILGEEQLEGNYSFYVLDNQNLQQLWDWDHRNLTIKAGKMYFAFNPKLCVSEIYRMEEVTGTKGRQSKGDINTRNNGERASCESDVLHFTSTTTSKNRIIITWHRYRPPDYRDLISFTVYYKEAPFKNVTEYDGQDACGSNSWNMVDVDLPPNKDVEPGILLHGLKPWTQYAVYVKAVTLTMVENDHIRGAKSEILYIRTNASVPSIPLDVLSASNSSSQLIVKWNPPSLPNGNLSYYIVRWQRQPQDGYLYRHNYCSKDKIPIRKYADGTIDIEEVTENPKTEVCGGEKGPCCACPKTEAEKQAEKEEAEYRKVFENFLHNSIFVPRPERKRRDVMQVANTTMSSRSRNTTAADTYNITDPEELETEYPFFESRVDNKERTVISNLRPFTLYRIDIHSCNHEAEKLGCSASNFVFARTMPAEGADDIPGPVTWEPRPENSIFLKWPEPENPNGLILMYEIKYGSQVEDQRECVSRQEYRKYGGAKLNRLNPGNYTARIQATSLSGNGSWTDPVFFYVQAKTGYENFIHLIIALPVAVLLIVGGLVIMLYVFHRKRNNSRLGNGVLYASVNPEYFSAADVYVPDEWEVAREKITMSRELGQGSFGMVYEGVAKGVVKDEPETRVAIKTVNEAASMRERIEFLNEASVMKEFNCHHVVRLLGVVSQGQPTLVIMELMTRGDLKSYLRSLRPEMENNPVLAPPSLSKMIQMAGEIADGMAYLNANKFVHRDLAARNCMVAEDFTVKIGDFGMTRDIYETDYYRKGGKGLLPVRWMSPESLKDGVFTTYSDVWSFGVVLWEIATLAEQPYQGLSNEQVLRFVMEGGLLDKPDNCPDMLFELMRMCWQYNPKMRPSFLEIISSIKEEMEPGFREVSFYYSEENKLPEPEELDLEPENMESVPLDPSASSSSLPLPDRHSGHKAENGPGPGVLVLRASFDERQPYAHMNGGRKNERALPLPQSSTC
Chain of EGFRΔ19del/T790M/C797S (P00533 with tags, fused parts or gaps DEL746-750/T790M/C797S, form open): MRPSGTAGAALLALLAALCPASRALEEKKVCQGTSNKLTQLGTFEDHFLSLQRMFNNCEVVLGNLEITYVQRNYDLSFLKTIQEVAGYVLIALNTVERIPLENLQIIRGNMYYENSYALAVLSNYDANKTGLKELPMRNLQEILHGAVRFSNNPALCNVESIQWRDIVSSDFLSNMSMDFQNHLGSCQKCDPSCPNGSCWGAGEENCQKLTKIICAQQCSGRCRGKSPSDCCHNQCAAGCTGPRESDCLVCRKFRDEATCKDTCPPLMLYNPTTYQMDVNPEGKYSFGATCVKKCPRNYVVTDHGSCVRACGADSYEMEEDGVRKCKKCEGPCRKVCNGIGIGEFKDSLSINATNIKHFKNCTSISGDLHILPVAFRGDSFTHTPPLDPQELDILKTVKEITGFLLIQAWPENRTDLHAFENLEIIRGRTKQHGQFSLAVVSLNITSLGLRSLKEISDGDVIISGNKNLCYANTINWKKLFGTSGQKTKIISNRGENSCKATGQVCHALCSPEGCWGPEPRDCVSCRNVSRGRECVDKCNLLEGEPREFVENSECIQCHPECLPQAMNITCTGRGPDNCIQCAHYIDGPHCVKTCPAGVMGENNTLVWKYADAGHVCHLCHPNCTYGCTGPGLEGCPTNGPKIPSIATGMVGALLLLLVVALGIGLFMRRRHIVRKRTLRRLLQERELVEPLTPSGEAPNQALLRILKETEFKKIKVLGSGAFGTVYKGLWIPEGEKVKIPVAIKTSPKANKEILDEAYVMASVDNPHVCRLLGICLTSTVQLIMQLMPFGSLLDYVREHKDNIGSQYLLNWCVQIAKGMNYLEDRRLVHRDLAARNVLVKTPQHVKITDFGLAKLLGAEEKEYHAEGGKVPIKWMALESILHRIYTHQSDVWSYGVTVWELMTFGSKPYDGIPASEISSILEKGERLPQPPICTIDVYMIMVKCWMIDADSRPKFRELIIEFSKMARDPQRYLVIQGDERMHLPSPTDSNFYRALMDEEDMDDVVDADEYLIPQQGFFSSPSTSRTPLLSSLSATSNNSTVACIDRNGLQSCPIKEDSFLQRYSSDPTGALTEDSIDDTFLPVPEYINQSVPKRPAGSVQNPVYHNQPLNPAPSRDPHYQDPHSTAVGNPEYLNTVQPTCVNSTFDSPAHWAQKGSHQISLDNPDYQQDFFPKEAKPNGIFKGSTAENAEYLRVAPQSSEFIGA
Chain of Ba/F3 cells with EGFR Δ19del/T790M/C797S mutation gene stably overexpressed (P00533 with tags, fused parts or gaps DEL746-750/T790M/C797S, form open): as above

SMILES | IC50 (EGFRΔ19del/T790M/C797S) | IC50 (EGFR WT) | IC50 (IGF1R) | GI50 [1] | IC50 (A431)
CCc1cc(Nc2ncc(Cl)c(Nc3ccc(-c4ccc5ocnc5c4)cc3P(C)(C)=O)n2)c(OC)cc1N1CCC(N2CCN(C)CC2)CC1 [Compound 17, (5-(Benzo[d]oxazol-5-yl)-2-((5-chloro-2-((5-ethyl-2-methoxy-4-(4-(4-methylpiperazin-1-yl)piperidin-1-yl)phenyl)amino)pyrimidin-4-yl)amino)phenyl)dimethylphosphine oxide] | 0.7 nM | 20.1 nM | 363 nM | 30 nM | 2200 nM
CCc1cc(Nc2ncc(Cl)c(Nc3ccc(-c4ncc(F)cn4)cc3P(C)(C)=O)n2)c(OC)cc1N1CCC(N2CCN(C)CC2)CC1 [Compound 18, (2-((5-Chloro-2-((5-ethyl-2-methoxy-4-(4-(4-methylpiperazin-1-yl)piperidin-1-yl)phenyl)amino)pyrimidin-4-yl)amino)-5-(5-fluoropyrimidin-2-yl)phenyl)dimethylphosphine oxide] | 0.7 nM | 20.3 nM | 126 nM | 13.2 nM | 1270 nM
CCc1cc(Nc2ncc(Cl)c(Nc3ccc(-c4nccc(OC)n4)cc3P(C)(C)=O)n2)c(OC)cc1N1CCC(N2CCN(C)CC2)CC1 [Compound 19, (2-((5-Chloro-2-((5-ethyl-2-methoxy-4-(4-(4-methylpiperazin-1-yl)piperidin-1-yl)phenyl)amino)pyrimidin-4-yl)amino)-5-(4-methoxypyrimidin-2-yl)phenyl)dimethylphosphine oxide] | 0.6 nM | 22 nM | 144 nM | 29.6 nM | 864 nM
CCc1cc(Nc2ncc(Br)c(Nc3ccc(-c4ncc(C)cn4)cc3P(C)(C)=O)n2)c(OC)cc1N1CCC(N2CCN(C)CC2)CC1 [Compound 21, (2-((5-Bromo-2-((5-ethyl-2-methoxy-4-(4-(4-methylpiperazin-1-yl)piperidin-1-yl)phenyl)amino)pyrimidin-4-yl)amino)-5-(5-methylpyrimidin-2-yl)phenyl)dimethylphosphine oxide] | 0.7 nM | 25.6 nM | 224 nM | 8.8 nM | 1390 nM
CCc1cc(Nc2ncc(Br)c(Nc3ccc(-c4cncnc4)cc3P(C)(C)=O)n2)c(OC)cc1N1CCC(N2CCN(C)CC2)CC1 [Compound 22, (2-((5-Bromo-2-((5-ethyl-2-methoxy-4-(4-(4-methylpiperazin-1-yl)piperidin-1-yl)phenyl)amino)pyrimidin-4-yl)amino)-5-(pyrimidin-5-yl)phenyl)dimethylphosphine oxide] | 0.3 nM | 40.8 nM | 120 nM | 20.5 nM | 831 nM
CCc1cc(Nc2ncc(Cl)c(Nc3ccc(-c4cnc(OC)nc4)cc3P(C)(C)=O)n2)c(OC)cc1N1CCC(N2CCN(C)CC2)CC1 [Compound 25, (2-((5-Chloro-2-((5-ethyl-2-methoxy-4-(4-(4-methylpiperazin-1-yl)piperidin-1-yl)phenyl)amino)pyrimidin-4-yl)amino)-5-(2-methoxypyrimidin-5-yl)phenyl)dimethylphosphine oxide] | 0.4 nM | 37.6 nM | 169 nM | 22.4 nM | 1700 nM
CCc1cc(Nc2ncc(Br)c(Nc3ccc(-c4ncc(OC)cn4)cc3P(C)(C)=O)n2)c(OC)cc1N1CCC(N2CCN(C)CC2)CC1 [Compound 30] | 0.2 nM | 20.7 nM | 118 nM | 15.2 nM | 8870 nM
CCc1cc(Nc2ncc(Br)c(Nc3ccc(-c4ccc(C5CC5)nn4)cc3P(C)(C)=O)n2)c(OC)cc1N1CCC(N2CCN(C)CC2)CC1 [Compound 36, (2-((5-Bromo-2-((5-ethyl-2-methoxy-4-(4-(4-methylpiperazin-1-yl)piperidin-1-yl)phenyl)amino)pyrimidin-4-yl)amino)-5-(6-cyclopropylpyridazin-3-yl)phenyl)dimethylphosphine oxide] | 0.2 nM | 35.5 nM | 219 nM | 22.3 nM | 4640 nM
CCc1cc(Nc2ncc(Br)c(Nc3ccc(-c4ccc(N(C)C)nn4)cc3P(C)(C)=O)n2)c(OC)cc1N1CCC(N2CCN(C)CC2)CC1 [Compound 37, (2-((5-Bromo-2-((5-ethyl-2-methoxy-4-(4-(4-methylpiperazin-1-yl)piperidin-1-yl)phenyl)amino)pyrimidin-4-yl)amino)-5-(6-(dimethylamino)pyridazin-3-yl)phenyl)dimethylphosphine oxide] | 0.3 nM | 28.8 nM | 263 nM | 17.4 nM | > 10000 nM
CCc1cc(Nc2ncc(Br)c(Nc3ccc(-c4cnsc4)cc3P(C)(C)=O)n2)c(OC)cc1N1CCC(N2CCN(C)CC2)CC1 [Compound 38, (2-((5-Bromo-2-((5-ethyl-2-methoxy-4-(4-(4-methylpiperazin-1-yl)piperidin-1-yl)phenyl)amino)pyrimidin-4-yl)amino)-5-(isothiazol-4-yl)phenyl)dimethylphosphine oxide] | 0.3 nM | 11.1 nM | 64 nM | 11.2 nM | 711 nM
CCc1cc(Nc2ncc(Cl)c(Nc3ccc(-c4nnc(C)o4)cc3P(C)(C)=O)n2)c(OC)cc1N1CCC(N2CCN(C)CC2)CC1 [Compound 45, (2-((5-Chloro-2-((5-ethyl-2-methoxy-4-(4-(4-methylpiperazin-1-yl)piperidin-1-yl)phenyl)amino)pyrimidin-4-yl)amino)-5-(5-methyl-1,3,4-oxadiazol-2-yl)phenyl)dimethylphosphine oxide] | 0.4 nM | 31.5 nM | 124 nM | 26.2 nM | 1080 nM
CCc1cc(Nc2ncc(Br)c(Nc3ccc(-c4cn(C)c5ncccc45)cc3P(C)(C)=O)n2)c(OC)cc1N1CCC(N2CCN(C)CC2)CC1 [Compound 46, (2-((5-Bromo-2-((5-ethyl-2-methoxy-4-(-4-(4-methylpiperazin-1-yl)piperidin-1-yl)phenyl)amino)pyrimidin-4-yl)amino)-5-(1-methyl-1H-pyrrolo[2,3-b]pyridin-3-yl)phenyl)dimethylphosphine oxide] | 1.7 nM | 47.6 nM | 628 nM | 30.3 nM | 2300 nM
CCc1cc(Nc2ncc(Br)c(Nc3ccc(-c4cnn(CCN5CCOCC5)c4)cc3P(C)(C)=O)n2)c(OC)cc1N1CCC(N2CCN(C)CC2)CC1 [Compound 47, (2-((5-Bromo-2-((5-ethyl-2-methoxy-4-(4-(4-methylpiperazin-1-yl)piperidin-1-yl)phenyl)amino)pyrimidin-4-yl)amino)-5-(1-(2-morpholinoethyl)-1hydro-pyrazol-4-yl)phenyl)dimethylphosphine oxide] | 0.9 nM | 15.5 nM | 60 nM | 23.4 nM | 771 nM
CCc1cc(Nc2ncc(Br)c(Nc3ccc(-c4ccccc4C#N)cc3P(C)(C)=O)n2)c(OC)cc1N1CCC(N2CCN(C)CC2)CC1 [Compound 51, 4′-((5-Bromo-2-((5-ethyl-2-methoxy-4-(4-(4-methylpiperazin-1-yl)piperidin-1-yl)phenyl)amino)pyrimidin-4-yl)amino)-3′-(dimethylphosphoryl)-[1,1′-biphenyl]-2-carbonitrile] | 1.3 nM | 30.8 nM | 269 nM | 23.5 nM | 578 nM
CCc1cc(Nc2ncc(Br)c(Nc3ccc(-c4cn(C)nc4OC)cc3P(C)(C)=O)n2)c(OC)cc1N1CCC(N2CCN(C)CC2)CC1 [Compound 63] | 1.3 nM | 38.8 nM | 335 nM | 24.5 nM | 512 nM
